Assays:
[1] = DRUGMATRIX: Sodium/nucleoside co-transporter radioligand binding (ligand: nitrobenzylthioinosine); format: cell membranes, Cavia porcellus, Dunkin-Hartley, Cerebral cortex, Membrane; conditions: Not Active = under 50% inhibition at 10 µM
[2] = molecular target: T1, Alpha-2C adrenergic receptor (Homo sapiens, UniProt P18825); assay: DRUGMATRIX: Adrenergic Alpha-2C radioligand binding (ligand: [3H] MK-912); format: cell membranes, Sf9, Membrane; conditions: sf9
T1 sequence (P18825 whole entry): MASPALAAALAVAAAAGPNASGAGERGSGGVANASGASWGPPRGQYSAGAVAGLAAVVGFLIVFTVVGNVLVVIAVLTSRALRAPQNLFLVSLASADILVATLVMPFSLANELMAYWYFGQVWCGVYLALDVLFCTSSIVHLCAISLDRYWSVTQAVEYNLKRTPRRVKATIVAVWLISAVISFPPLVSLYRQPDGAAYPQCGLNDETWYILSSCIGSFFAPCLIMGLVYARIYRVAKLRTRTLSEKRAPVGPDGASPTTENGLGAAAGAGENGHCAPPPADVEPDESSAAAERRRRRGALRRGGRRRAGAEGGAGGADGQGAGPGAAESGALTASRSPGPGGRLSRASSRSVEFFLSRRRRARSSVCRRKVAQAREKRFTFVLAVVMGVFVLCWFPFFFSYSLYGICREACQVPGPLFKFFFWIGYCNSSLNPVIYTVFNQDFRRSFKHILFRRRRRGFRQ

[3] = molecular target: T2, Thromboxane-A synthase (Homo sapiens, UniProt P24557); assay: biochemical; format: tissue-based, Platelet; conditions: platelet;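 also: enzyme inhibition assay with PGH2 supplied as substrate; in other assays of this panel Not Active means under 50% inhibition at 10 µM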
T2 sequence (P24557 whole entry): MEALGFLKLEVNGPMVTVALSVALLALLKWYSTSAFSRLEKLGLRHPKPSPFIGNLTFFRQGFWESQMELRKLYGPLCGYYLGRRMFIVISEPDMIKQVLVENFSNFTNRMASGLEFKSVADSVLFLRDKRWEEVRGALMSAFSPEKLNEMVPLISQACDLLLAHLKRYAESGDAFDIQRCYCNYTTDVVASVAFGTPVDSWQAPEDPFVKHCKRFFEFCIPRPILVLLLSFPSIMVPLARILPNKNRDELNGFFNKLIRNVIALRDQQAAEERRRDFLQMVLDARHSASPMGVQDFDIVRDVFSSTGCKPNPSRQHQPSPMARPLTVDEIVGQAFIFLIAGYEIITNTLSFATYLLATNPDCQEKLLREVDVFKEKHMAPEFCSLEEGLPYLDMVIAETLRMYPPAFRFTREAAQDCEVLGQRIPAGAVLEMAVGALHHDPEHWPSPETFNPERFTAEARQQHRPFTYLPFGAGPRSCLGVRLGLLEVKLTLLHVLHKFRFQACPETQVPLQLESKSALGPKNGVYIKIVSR

[4] = molecular target: C-C chemokine receptor type 2 (Homo sapiens, UniProt P41597); format: cell membranes, CHO-K1, Membrane; conditions: cho-k1; also: in other assays of this panel Not Active means under 50% inhibition at 10 µM
C-C chemokine receptor type 2, sequence (P41597 whole entry): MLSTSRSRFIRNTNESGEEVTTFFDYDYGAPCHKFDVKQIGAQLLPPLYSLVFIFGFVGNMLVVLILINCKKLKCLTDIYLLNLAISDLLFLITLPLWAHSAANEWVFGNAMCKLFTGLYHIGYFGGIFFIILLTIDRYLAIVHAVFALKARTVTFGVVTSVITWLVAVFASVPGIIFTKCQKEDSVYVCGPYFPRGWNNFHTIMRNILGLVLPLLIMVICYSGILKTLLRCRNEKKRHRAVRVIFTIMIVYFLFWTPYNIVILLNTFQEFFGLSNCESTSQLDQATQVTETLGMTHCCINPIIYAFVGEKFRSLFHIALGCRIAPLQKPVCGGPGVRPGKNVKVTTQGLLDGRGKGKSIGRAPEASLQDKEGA

[5] = molecular target: C-C chemokine receptor type 5 (Homo sapiens, UniProt P51681); format: cell membranes, Membrane; conditions: hek293; also: in other assays of this panel Not Active means under 50% inhibition at 10 µM
C-C chemokine receptor type 5, sequence (P51681 whole entry): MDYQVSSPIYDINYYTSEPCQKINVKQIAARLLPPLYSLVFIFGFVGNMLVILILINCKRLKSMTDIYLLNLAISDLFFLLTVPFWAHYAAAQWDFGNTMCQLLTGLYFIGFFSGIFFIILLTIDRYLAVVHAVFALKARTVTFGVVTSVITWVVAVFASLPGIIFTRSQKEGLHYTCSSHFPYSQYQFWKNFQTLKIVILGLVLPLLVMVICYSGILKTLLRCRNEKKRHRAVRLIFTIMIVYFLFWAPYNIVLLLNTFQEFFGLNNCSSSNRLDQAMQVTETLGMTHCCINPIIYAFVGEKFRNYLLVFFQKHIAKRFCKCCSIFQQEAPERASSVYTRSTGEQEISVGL

[6] = molecular target: T3, C-X-C chemokine receptor type 2 (Homo sapiens, UniProt P25025); format: cell membranes, Membrane; conditions: cho-k1; also: in other assays of this panel Not Active means under 50% inhibition at 10 µM
T3 sequence (P25025 whole entry): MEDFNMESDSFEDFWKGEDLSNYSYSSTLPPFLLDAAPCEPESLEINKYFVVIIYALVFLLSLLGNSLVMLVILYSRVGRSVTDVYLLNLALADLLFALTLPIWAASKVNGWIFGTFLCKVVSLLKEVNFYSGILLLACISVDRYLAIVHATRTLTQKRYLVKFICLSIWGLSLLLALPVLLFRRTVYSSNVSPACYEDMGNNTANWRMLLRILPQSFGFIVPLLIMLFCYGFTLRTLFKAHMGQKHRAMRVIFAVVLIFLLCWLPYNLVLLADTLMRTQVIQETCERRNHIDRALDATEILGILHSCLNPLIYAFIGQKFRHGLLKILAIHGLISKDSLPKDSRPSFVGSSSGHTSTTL

[7] = molecular target: Sodium-dependent dopamine transporter (Homo sapiens, UniProt Q01959); assay: DRUGMATRIX: Dopamine Transporter radioligand binding (ligand: [125I] RTI-55); format: cell membranes, CHO-K1, Membrane; conditions: cho-k1, Not Active = under 50% inhibition at 10 µM
Sodium-dependent dopamine transporter, sequence (Q01959 whole entry): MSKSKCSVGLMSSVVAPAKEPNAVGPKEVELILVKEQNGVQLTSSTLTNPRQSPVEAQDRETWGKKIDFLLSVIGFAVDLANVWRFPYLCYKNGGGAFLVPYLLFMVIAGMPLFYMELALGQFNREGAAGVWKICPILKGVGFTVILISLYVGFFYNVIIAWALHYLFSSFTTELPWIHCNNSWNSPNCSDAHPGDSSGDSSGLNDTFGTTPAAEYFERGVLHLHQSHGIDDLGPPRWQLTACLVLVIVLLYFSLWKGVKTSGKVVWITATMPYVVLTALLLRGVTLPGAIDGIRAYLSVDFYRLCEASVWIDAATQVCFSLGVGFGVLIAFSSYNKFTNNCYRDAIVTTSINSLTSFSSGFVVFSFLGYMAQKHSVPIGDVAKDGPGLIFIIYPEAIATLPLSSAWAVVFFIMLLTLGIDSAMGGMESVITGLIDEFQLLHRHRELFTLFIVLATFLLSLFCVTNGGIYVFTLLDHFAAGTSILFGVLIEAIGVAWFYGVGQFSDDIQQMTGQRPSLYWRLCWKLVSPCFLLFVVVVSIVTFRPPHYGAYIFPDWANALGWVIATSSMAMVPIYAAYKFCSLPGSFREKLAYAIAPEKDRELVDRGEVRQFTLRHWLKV

[8] = molecular target: Melanocortin receptor 3 (Homo sapiens, UniProt P41968); format: cell membranes, Membrane; conditions: hek293; also: in other assays of this panel Not Active means under 50% inhibition at 10 µM
Melanocortin receptor 3, sequence (P41968 whole entry): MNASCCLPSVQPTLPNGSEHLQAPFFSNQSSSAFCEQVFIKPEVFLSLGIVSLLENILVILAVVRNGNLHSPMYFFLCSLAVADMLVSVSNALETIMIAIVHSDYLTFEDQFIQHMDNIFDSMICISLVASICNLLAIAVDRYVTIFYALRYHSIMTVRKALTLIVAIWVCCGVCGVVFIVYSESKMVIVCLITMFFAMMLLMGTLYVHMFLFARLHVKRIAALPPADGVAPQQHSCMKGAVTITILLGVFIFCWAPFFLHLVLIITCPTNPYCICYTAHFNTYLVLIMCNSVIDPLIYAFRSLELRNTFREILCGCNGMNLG

[9] = DRUGMATRIX: Platelet-Derived Growth Factor (PDGF) radioligand binding (ligand: [125I] PDGF); format: cell-based; conditions: nih3t3; Not Active = under 50% inhibition at 10 µM
[10] = molecular target: T4, Progesterone receptor (Bos taurus, UniProt Q690N0); assay: DRUGMATRIX: Progesterone radioligand binding (ligand: [3H] R-5020); format: tissue-based, Uterus; conditions: Not Active = under 50% inhibition at 10 µM
T4 sequence (Q690N0 whole entry): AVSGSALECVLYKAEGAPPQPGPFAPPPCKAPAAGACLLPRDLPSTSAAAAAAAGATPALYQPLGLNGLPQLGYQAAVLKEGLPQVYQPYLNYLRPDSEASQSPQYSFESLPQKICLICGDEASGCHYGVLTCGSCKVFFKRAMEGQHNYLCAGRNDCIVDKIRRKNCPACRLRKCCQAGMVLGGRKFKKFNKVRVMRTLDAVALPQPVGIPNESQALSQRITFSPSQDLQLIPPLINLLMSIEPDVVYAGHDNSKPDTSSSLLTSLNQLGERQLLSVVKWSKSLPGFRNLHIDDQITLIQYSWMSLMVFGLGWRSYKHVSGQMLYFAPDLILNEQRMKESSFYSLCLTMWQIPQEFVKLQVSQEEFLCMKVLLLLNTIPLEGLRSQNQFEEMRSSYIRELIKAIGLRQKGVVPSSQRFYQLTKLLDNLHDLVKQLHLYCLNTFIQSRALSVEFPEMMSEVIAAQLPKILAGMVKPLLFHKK

[11] = molecular target: Mitogen-activated protein kinase 3 (Homo sapiens, UniProt P27361); assay: DRUGMATRIX: Protein Serine/Threonine Kinase, ERK1 enzyme inhibition (substrate: Myelin Basic Protein); design: species or system Escherichia coli; conditions: Not Active = under 50% inhibition at 10 µM
Mitogen-activated protein kinase 3, sequence (P27361 whole entry): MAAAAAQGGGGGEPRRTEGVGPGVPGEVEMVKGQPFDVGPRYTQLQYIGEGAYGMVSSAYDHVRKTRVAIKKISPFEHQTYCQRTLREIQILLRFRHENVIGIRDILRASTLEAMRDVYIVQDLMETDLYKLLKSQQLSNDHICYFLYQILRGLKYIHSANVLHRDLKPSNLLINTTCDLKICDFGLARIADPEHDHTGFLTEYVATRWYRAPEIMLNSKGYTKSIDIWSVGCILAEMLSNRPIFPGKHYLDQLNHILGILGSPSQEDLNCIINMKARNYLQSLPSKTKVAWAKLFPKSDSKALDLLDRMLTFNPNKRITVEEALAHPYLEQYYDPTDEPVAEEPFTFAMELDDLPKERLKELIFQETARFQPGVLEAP

[12] = molecular target: Mitogen-activated protein kinase 1 (Homo sapiens, UniProt P28482); assay: DRUGMATRIX: Protein Serine/Threonine Kinase, ERK2 enzyme inhibition (substrate: Myelin Basic Protein); design: species or system Escherichia coli; conditions: Not Active = under 50% inhibition at 10 µM
Mitogen-activated protein kinase 1, sequence (P28482 whole entry): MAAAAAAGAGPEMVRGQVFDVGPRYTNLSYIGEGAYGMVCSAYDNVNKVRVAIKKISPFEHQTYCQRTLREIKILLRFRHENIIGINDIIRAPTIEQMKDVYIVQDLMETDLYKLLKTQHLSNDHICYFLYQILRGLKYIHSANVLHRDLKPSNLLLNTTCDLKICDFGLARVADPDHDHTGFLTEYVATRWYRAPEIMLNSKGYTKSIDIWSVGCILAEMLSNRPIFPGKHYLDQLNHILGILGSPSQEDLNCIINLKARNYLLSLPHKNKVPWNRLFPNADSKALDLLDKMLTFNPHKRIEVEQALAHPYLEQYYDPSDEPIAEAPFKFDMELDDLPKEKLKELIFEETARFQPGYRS

[13] = molecular target: Mitogen-activated protein kinase 14 (Homo sapiens, UniProt Q16539); design: species or system Escherichia coli
Mitogen-activated protein kinase 14, sequence (Q16539 whole entry): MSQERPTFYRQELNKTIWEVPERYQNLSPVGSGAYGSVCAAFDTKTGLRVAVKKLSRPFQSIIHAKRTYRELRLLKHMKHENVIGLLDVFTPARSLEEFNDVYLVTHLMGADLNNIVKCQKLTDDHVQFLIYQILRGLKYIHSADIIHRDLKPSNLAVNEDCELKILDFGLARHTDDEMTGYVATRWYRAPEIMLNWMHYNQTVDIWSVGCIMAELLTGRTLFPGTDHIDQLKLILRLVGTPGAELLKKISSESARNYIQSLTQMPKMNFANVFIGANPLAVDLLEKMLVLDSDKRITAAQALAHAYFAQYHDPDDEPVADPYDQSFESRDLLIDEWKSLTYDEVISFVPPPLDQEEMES

[14] = molecular target: Receptor tyrosine-protein kinase erbB-2 (Homo sapiens, UniProt P04626); assay: biochemical; format: cell-based, Insect cells; conditions: insect cells

Molecule | IC50 [1] | Ki [1] | IC50 [2] | IC50 [3] | IC50 [4] | IC50 [5] | IC50 [6] | IC50 [7] | IC50 [8] | IC50 [9] | Ki [9] | IC50 [10] | IC50 [11] | IC50 [12] | IC50 [13] | IC50 [14] | also measured
CC1CN(c2cc3c(cc2F)c(=O)c(C(=O)O)cn3-c2ccc(F)cc2F)CCN1 (stereo unspecified) [TEMAFLOXACIN] | Not Active | Not Active | Not Active | Not Active | Not Active | Not Active | Not Active | Not Active | Not Active | Not Active | Not Active | Not Active | Not Active | Not Active | Not Active | Not Active | –
IVERMECTIN | Not Active | Not Active | – | Not Active | Not Active | Not Active | Not Active | – | Not Active | Not Active | Not Active | Not Active | Not Active | Not Active | Not Active | Not Active | IC50 ([2]; read-out: IC50): 3920 nM; Ki ([2]; read-out: Ki): 570 nM; Ki [3]: Not Active; Ki [4]: Not Active; Ki [5]: Not Active; Ki [6]: Not Active; IC50 ([7]; read-out: IC50): 4460 nM; Ki ([7]; read-out: Ki): 3540 nM; Ki [8]: Not Active; Ki [10]: Not Active; Ki [11]: Not Active; Ki [12]: Not Active; Ki [13]: Not Active; Ki [14]: Not Active
CN[C@H](CC(C)C)C(=O)N[C@H]1C(=O)N[C@@H](CC(N)=O)C(=O)N[C@H]2C(=O)N[C@H]3C(=O)N[C@H](C(=O)N[C@H](C(=O)O)c4cc(O)cc(O)c4-c4cc3ccc4O)[C@H](O)c3ccc(c(Cl)c3)Oc3cc2cc(c3O[C@@H]2O[C@H](CO)[C@@H](O)[C@H](O)[C@H]2O[C@H]2C[C@](C)(N)[C@H](O)[C@H](C)O2)Oc2ccc(cc2Cl)[C@H]1O [VANCOMYCIN] | Not Active | Not Active | Not Active | Not Active | Not Active | Not Active | Not Active | Not Active | Not Active | Not Active | Not Active | Not Active | Not Active | Not Active | Not Active | Not Active | –
CC(=O)S[C@@H]1CC2=CC(=O)CC[C@]2(C)[C@H]2CC[C@@]3(C)[C@@H](CC[C@@]34CCC(=O)O4)[C@H]12 [SPIRONOLACTONE] | Not Active | Not Active | Not Active | Not Active | Not Active | Not Active | Not Active | Not Active | Not Active | Not Active | Not Active | – | Not Active | Not Active | Not Active | Not Active | IC50 ([10]; read-out: IC50): 1670 nM; Ki ([10]; read-out: Ki): 217 nM
COc1cc(C(=O)NC2CCCNC2)cc(OC)c1OC (stereo unspecified) [TROXIPIDE] | Not Active | Not Active | Not Active | Not Active | Not Active | Not Active | Not Active | Not Active | Not Active | Not Active | Not Active | Not Active | Not Active | Not Active | Not Active | Not Active | –
Cc1ccc(C(=O)C(C)CN2CCCCC2)cc1 (stereo unspecified) [TOLPERISONE] | Not Active | Not Active | Not Active | Not Active | Not Active | Not Active | Not Active | Not Active | Not Active | Not Active | Not Active | Not Active | Not Active | Not Active | Not Active | Not Active | –
NC(=O)c1ccccc1O [SALICYLAMIDE] | Not Active | Not Active | Not Active | Not Active | Not Active | Not Active | Not Active | Not Active | Not Active | Not Active | Not Active | Not Active | Not Active | Not Active | Not Active | Not Active | –
NNc1ccccc1 [PHENYLHYDRAZINE] | Not Active | Not Active | Not Active | Not Active | Not Active | Not Active | Not Active | Not Active | Not Active | Not Active | Not Active | Not Active | Not Active | Not Active | Not Active | Not Active | –

From ChEMBL document CHEMBL1909046, “DrugMatrix in vitro pharmacology data”
